Source: publication PMC9732823, “Discovery of Dual Aβ/Tau Inhibitors and Evaluation of Their Therapeutic Effect on a Drosophila Model of Alzheimer’s Disease” (ACS Chemical Neuroscience, 2022)

How the values were obtained:
[1] = target: T1, Tau protein (Homo sapiens, UniProt P10636); test: Inhibition of Tau aggregation in intact E. coli cells overexpressing Tau (ThS fluorescence); assay type: cell-based, Escherichia coli; conditions: read-out: % inhibition Tau aggregation @ 10 μM, intact E. coli cells, compound 10 μM, mean ± SEM of four independent experiments
T1 construct: expressed in transfected cells; host or cells: Escherichia coli BL21 (DE3) with pTARA and pRKT42
T1 sequence (P10636 1-441 isoform P10636-8): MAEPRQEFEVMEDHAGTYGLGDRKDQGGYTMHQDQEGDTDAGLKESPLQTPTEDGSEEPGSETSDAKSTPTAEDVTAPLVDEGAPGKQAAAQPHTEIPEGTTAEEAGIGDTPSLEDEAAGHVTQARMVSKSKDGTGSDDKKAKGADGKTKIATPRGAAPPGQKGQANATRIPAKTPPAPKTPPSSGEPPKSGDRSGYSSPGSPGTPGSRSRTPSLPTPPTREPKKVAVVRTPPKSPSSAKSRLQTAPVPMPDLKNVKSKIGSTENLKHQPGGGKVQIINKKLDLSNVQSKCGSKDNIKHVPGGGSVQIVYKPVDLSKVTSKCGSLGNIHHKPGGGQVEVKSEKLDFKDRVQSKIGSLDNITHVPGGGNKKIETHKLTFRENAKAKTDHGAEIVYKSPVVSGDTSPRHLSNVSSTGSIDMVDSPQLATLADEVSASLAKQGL
Description: (§1) As it would have been labor-intensive and expensive to screen such a number of compounds in two separate antiaggregating studies using recombinant Aβ and Tau, we turned our attention to a simple model of protein aggregation, namely, the intact Escherichia coli (E. coli) cells overexpressing Aβ42 and Tau proteins.[28],[29] Building on the fact that inclusion bodies produced by overexpression of these proteins in E. coli mainly consist of fibrillar aggregates, this simple screening method uses bacteria as an in vivo reservoir for tracking the inhibition of amyloid-type protein aggregation in real time, using the amyloid dye thioflavin S (ThS). Of note, this screening has already been used for the evaluation of libraries of antiaggregating compounds.[28]−[38]
E. coli BL21 (DE3) competent cells were transformed with pTARA containing the RNA-polymerase gen of the T7 phage (T7RP) under the control of the promoter PBAD. E. coli BL21 (DE3) with pTARA competent cells were transformed with the pRKT42 vector encoding four repeats of Tau protein in two inserts. For overnight culture preparation, 10 mL of M9 medium containing 0.5% of glucose, 100 μg·mL^–1 ampicillin, and 12.5 μg·mL^–1 chloramphenicol were inoculated with a colony of BL21 (DE3) bearing the plasmids to be expressed at 37 °C. For expression of Tau protein, the required volume of overnight culture to obtain 1:500 dilution was added to fresh M9 minimal medium containing 0.5% of glucose, 50 μg·mL^–1 ampicillin, 12.5 μg·mL^–1 chloramphenicol, and 25 μM ThS. The bacterial culture was grown at 37 °C and 250 rpm. When the cell density reached ABS600 nm= 0.6, an amount of 980 μL of culture was transferred into Eppendorf tubes of 1.5 mL with 10 μL of each compound to be tested in DMSO and 10 μL of arabinose at 25%. The final concentration of the drug was fixed at 10 μM. The samples were grown overnight at 37 °C and 1400 rpm using a thermomixer (Eppendorf, Hamburg, Germany). As the control of maximal amyloid presence, the same amount of DMSO without the drug was added to the sample. In parallel, noninduced samples (in the absence of arabinose) were also prepared and used as controls for the amyloid absence. In addition, the absorbance at 600 nm of the samples was checked to assess the potential intrinsic toxicity of the compounds and to confirm the correct bacterial growth.
(§2) ThS (T1892) and other chemical reagents were purchased from Sigma (St. Louis, MO). ThS stock solution (25 mM) was prepared in double-distilled water purified through a Milli-Q system (Millipore). For the fluorescence assay, the ThS spectra were measured on an AMINCO-Bowman series 2 luminescence spectrophotometer (Aminco-Bowman AB2, SLM Aminco, Rochester, NY) from 460 to 600 nm at 25 °C using an excitation wavelength of 440 nm and slit widths of 4 nm. The emission at 485 nm (fluorescence peak of ThS in the presence of amyloids) was recorded. To normalize the ThS fluorescence as a function of the bacterial concentration, ABS600nm was obtained using a Shimadzu UV-2401 PC UV–Vis spectrophotometer (Shimadzu, Japan). Note that the fluorescence normalization was carried out considering as 100% the ThS fluorescence of the bacterial cells expressing the peptide or protein in the absence of the drug and 0% the ThS fluorescence of the bacterial cells nonexpressing the peptide or protein.

[2] = test system: cerebellar granule neurons (CGNs); test: Neurotoxicity on primary cultures of cerebellar granule neurons (nuclei counting after Hoechst staining); conditions: differentiated CGNs, 24 h, percentage of healthy nuclei on total nuclei, mean ± SEM of three experiments
[3] = Solubility in the in vitro aggregation assay conditions
Description: (§3) * The results are the mean of at least two independent measurements each performed in duplicate.
1 Compounds were measured at 50 μM.

[4] = PAMPA-BBB assay
Description: Thus, to reduce attrition in the development process, the evaluation of BBB penetration at a very early drug discovery stage is of crucial importance. In light of this, the ability of the previously selected compounds to cross the BBB was predicted by a parallel artificial membrane permeability assay (PAMPA)-BBB,[41] a high-throughput technique widely used as an indicator of a molecule’s passive diffusion through the BBB. Six commercially available drugs were used to validate the assay.
PAMPA (the parallel artificial membrane permeability assay) is a high-throughput screening tool applicable for the prediction of the passive transport of potential drugs across the BBB.[41] In this study, it has been used as a non-cell-based in vitro assay carried out in a coated 96-well membrane filter. The filter membrane of the donor plate was coated with PBL (Polar Brain Lipid, Avanti) in dodecane (4 μL of 20 mg/mL PBL in dodecane) and the acceptor well was filled with 300 μL of phosphate buffer saline, (PBS pH 7.4; VA). The tested compounds were dissolved first in DMSO and then diluted with PBS pH 7.4 to reach the final concentrations of 50–500 μM in the donor well. […] Then, 300 μL of the donor solution (VD) was added to the donor wells and the donor filter plate was carefully put on the acceptor plate so that the coated membrane was “in touch” with both donor solution and acceptor buffer. In principle, the test compound diffuses from the donor well through the polar brain lipid membrane (area = 0.28 cm^2) to the acceptor well. The concentrations of the tested compound in both donor and the acceptor wells were assessed after 3, 4, 5, and 6 h of incubation in quadruplicate using a UV plate reader, Synergy HT (Biotek) at the maximum absorption wavelength of each compound (n=3). In addition to that, solution of the theoretical compound concentration, simulating the equilibrium state established if the membrane were ideally permeable, was prepared and assessed as well. The concentrations of the compounds in the donor and acceptor wells and the equilibrium concentration were calculated from the standard curve and expressed as the permeability (Pe) according to the equation[41] [drawing 1] where [drawing 2]

[5] = target: T2, Aβ42 (Homo sapiens, UniProt P05067); test: Inhibition of Aβ42 aggregation in intact E. coli cells overexpressing Aβ42 (ThS fluorescence); assay type: cell-based, Escherichia coli; conditions: read-out: % inhibition Aβ42 aggregation @ 10 μM, intact E. coli cells, compound 10 μM, mean ± SEM of four independent experiments
T2 construct: expressed in transfected cells; host or cells: Escherichia coli BL21 (DE3), pET28a
T2 sequence (P05067 672-713 limits assumed): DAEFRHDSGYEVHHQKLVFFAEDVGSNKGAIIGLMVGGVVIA
Description: as §1
Escherichia coli competent cells BL21 (DE3) were transformed with the pET28a vector (Novagen, Inc., Madison, WI) carrying the DNA sequence of Aβ42. Because of the addition of the initiation codon ATG in front of both genes, the overexpressed peptide contains an additional methionine residue at its N terminus. For overnight culture preparation, an amount of 10 mL of M9 minimal medium containing 50 μg·mL^–1 kanamycin was inoculated with a colony of BL21 (DE3) bearing the plasmid to be expressed at 37 °C. For expression of the Aβ42 peptide, the required volume of overnight culture to obtain 1:500 dilution was added into fresh M9 minimal medium containing 50 μg·mL^–1 kanamycin and 250 μM ThS. The bacterial culture was grown at 37 °C and 250 rpm. When the cell density reached ABS600 nm = 0.6, an amount of 980 μL of culture was transferred into Eppendorf tubes of 1.5 mL with 10 μL of each compound to be tested in DMSO and 10 μL of isopropyl 1-thio-β-D-galactopyranoside (IPTG) at 100 mM. The final concentration of the drug was fixed at 10 μM. The samples were grown overnight at 37 °C and 1400 rpm using a thermomixer (Eppendorf, Hamburg, Germany). As the control of the amyloid presence (maximal amyloid presence), the same amount of DMSO without the drug was added to the sample. In parallel, noninduced samples (in the absence of IPTG) were also prepared and used as controls of the non-amyloid presence. In addition, the absorbance at 600 nm of the samples was checked to assess the potential intrinsic toxicity of the compounds and to confirm the correct bacterial growth.
as §2

[6] = physchem; conditions: phosphate buffer (Tau(306-336) aggregation assay conditions), pH 7.4, aqueous buffer
Description: as §3
1 Compounds were measured at 50 μM.

[7] = test system: Arctic Aβ42 Drosophila flies; test: Climbing assay in Arctic Aβ42 Drosophila flies
Description: Thus, we performed behavioral tests to assess the climbing abilities of Aβ42Drosophila flies with and without treatment with 22 (20 μM), 23 (20 μM), and doxycycline (50 μM), compared to control flies.
(§4) The transactivating protein GAL4 is placed under the control of a specific promoter, with its own spatial and temporal patterns, in this case, Elav, whereas the upstream activation sequence (UAS) localized upstream, the locus controlled by the UAS-Gal4; in our study, UAS expresses construct for the E22G variant of Aβ42 (Arctic Aβ42) (AlzArc2).[56],[64] Around 150 flies (half female/male) for each compound tested were collected and divided into groups of 25 flies. At the top of the media, 25 μL of doxycycline (50 μM), 22 (20 μM), or 23 (20 μM) were added fresh anytime the flies were flipped.
Briefly, males and females 25 per vial were kept at 25 °C. The climbing test was performed on days 7, 14, and 21 after birth. […] The protocol was repeated 10 times at 5-min intervals.

[8] = test system: Arctic Aβ42 Drosophila flies; test: Lifespan analysis in Arctic Aβ42 Drosophila flies; conditions: 20 μM in fly food; days 5, 10, 20 post-eclosion
Description: As longevity is a phenotype that can be rapidly measured in this in vivo AD model, we first assessed changes in Drosophila’s lifespan with and without treatment with 22 and 23 (20 μM). […] Doxycycline was tested at 50 μM, a concentration used in similar previous experiments.[59]
as §4
Briefly, males and females 25 per vial were kept at 25 °C.

[9] = target: T3, Tau(306-336) peptide (Homo sapiens, UniProt P10636); test: Inhibition of Tau(306-336) peptide aggregation (ThT fluorimetric assay); assay type: biochemical; conditions: Tau(306-336) 50 μM, compound 50 μM, phosphate buffer pH 7.4, read-out: Inhibition of Tau(306-336) peptide self-aggregation (%) ± SEM
T3 construct: 1 mg of Tau(306-336) (Bachem AG, Germany) was dissolved; purchased Bachem AG, Germany
T3 sequence (P10636 623-653 limits assumed): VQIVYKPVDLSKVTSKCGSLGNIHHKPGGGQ
Description: Secondly, we investigated the ability of the compounds to interfere with Tau aggregation, using the third repeat domain Tau fragment (Tau(306-336) peptide).[44] The aggregation profiles of the Tau(306–336) peptide (50 μM) in the absence and presence of equimolar concentrations of either 22 or 23 were monitored in phosphate buffer 50 mM, pH 7.4, using Thioflavin T (ThT) as the detection dye.
Briefly, 1 mg of Tau(306-336) (Bachem AG, Germany) was dissolved in 1,1,1,3,3,3,-hexafluoro-2-propanol (HFIP), gently vortexed, sonicated, and kept overnight at room temperature. Subsequently, the sample was aliquoted, dried, and stored at −20 °C. Stock solutions of Tau(306-336) peptide (500 μM) were prepared in ultrapure water and immediately used. […] Tau(306-336) aggregation was monitored at 30 °C in a black, clear bottom 96-well plate (Greiner) by the EnSpire multiplate reader (Perkin Elmer) using the ThT fluorimetric assay[14] with some variations. […] Fluorescence data were recorded every 10 min overnight with 1 min shaking at 800 rpm prior to each reading. […] Inhibition % is expressed as the mean ± SEM. Quenching of ThT fluorescence was evaluated by preparing blank solutions containing the inhibitor/reference compound and preformed fibrils of Tau(306–336) peptide.

Row | inhibition at 50 µM [9] [%] | Structure (SMILES) | inhibition at 10 µM [1] [%] | % survival neurotoxicity @ 10 μM [2] [%] | solubility in Tau(306-336) aggregation assay conditions ([3]; 50 μM, phosphate buffer 50 mM pH 7.4, NS = not soluble in the assay conditions) | solubility in Aβ42 ThT-based assay condition ([3]; dedicated solubility assays) | Papp ([4]; PAMPA, pH 7.4) [×10⁻⁶ cm/s] | BBB permeability prediction ([4]; PAMPA-BBB) | CNS (+/-) ([4]; PAMPA-BBB penetration estimation) | inhibition at 10 µM [5] [%] | solubility [6] [µM] | climbing abilities of Aβ42 Drosophila flies on day 21 ([7]; 20 μM in fly food) | climbing abilities of Aβ42 Drosophila flies ([7]; 20 μM in fly food, days 7, 14, 21 post-eclosion) | lifespan of Aβ42 Drosophila flies [8] | climbing abilities of Aβ42 Drosophila flies on day 21 ([7]; 50 μM in fly food)
1 | – | CN(C)CCN1C(=O)S/C(=C\c2ccc3[nH]c4ccc(/C=C5\SC(=O)N(CCN(C)C)C5=O)cc4c3c2)C1=O [Compound 22, (5Z,5′Z)-5,5′-((9H-Carbazole-3,6-diyl)bis(methanylylidene))bis(3-(2-(dimethylamino)ethyl)thiazolidine-2,4-dione)] | 66.1 ± 3.9 | 94.3 ± 1.8 | solubility issues | too limited to grant trustable results | 5.3 ± 1.17 | predicted to passively diffuse across the BBB | CNS + (CNS + (high BBB permeation predicted): Pe (×10-6 cm s-1) > 4.0) | 74 ± 4.3 | < 50 | good climbing performances | greatly improving the climbing performances | increase in longevity | –
2 | 61.5 ± 0.8 | C[C@H]1c2cccc(O)c2C(=O)C2=C(O)[C@]3(O)C(=O)C(C(N)=O)=C(O)[C@@H](N(C)C)[C@@H]3[C@@H](O)[C@@H]21 [Doxycycline, doxycycline, reference compound] | – | – | – | – | – | – | – | – | – | – | – | – | strongly declined
